Data from paper PMC4095795 (ChemMedChem, 2014).
pIC50: −log10 of the molar value.

Experiments:
cathepsin K [1] = target: T1, cathepsin K (Mus musculus, UniProt P55097); experiment: Live cell cathepsin K activity staining in osteoclasts
T1 sequence (P55097 115-329): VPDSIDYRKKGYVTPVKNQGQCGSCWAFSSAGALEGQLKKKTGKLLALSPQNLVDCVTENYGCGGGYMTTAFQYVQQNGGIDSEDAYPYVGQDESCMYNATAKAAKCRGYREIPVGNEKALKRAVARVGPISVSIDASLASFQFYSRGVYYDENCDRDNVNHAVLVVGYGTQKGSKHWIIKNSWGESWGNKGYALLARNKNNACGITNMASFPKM

purified cathepsin K = settings: read-out: IC50 against purified cathepsin K; literature value; cited from earlier work
[2] = target: T2, Recombinant cathepsin K (human) (Homo sapiens, UniProt P43235); settings: read-out: IC50 against purified human cathepsin K; parent inhibitors; identical within error under light vs. dark; cathepsin K 2 nM, Z-Gly-Pro-Arg-AMC 100 μM
T2 sequence (P43235 115-329): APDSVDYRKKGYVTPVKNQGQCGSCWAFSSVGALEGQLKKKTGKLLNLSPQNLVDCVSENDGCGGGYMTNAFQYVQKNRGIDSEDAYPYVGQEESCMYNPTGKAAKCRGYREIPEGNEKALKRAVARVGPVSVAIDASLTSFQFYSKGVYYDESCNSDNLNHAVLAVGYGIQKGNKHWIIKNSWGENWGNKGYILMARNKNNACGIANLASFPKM

cathepsin K [3] = settings: cited from earlier work
[4] = cited from earlier work
[5] = longer than 2; cited from earlier work
[6] = tested on: PC3 prostate carcinoma cells; experiment: Cell viability, MTT assay, PC3 cells; settings: PC-3 cells, dark or irradiated, 24 h, tested 1 nM–100 μM
[7] = tested on: bone marrow macrophages (BMMs); experiment: Cell viability, MTT assay, BMM cells; settings: dark or irradiated, 24 h, tested 1 nM–100 μM

| Compound | maximum inhibition of Z-LR-4MβNA hydrolysis (cathepsin K [1]; 4 under light conditions) [%] | reduction of hydrolysis of Z-LR-4MβNA (cathepsin K [1]; 10–1000 nM, dose dependent, with CA074Me 1 μM) | pIC50 (purified cathepsin K) | pIC50 [2] | inhibition of cathepsin K activity in live cell assays (cathepsin K [3]) | plasma stability relative to 2 [4] | half-life in vivo relative to 2 [5] | effect on Z-LR-4MβNA hydrolysis at 1000 nM (cathepsin K [1]; 1000 nM, with CA074Me 1 μM) | difference in inhibition between light and dark (cathepsin K [1]; Z-LR-4MβNA, with CA074Me 1 μM) | concentrations with no effects on viability / well tolerated (MTT) [6] | concentrations with no effects on viability / well tolerated (MTT) [7] |
| --- | --- | --- | --- | --- | --- | --- | --- | --- | --- | --- | --- |
| CC(C)CC(NC(=O)OCc1ccccc1)C(=O)NCC#N (stereo not drawn) [Compound 2, Cbz-Leu-NHCH2CN, reference compound] | 50 | up to 50% | 7.46 | 7.44 | inhibit cathepsin K activity in live cell assays |  |  |  |  |  |  |
| CC(C)CC(NC(=O)OCc1ccccc1)C(=O)NC(C#N)COCc1ccccc1 (stereo not drawn) [Compound 3, Cbz-Leu-Ser(OBn)-CN] |  |  | 8.05 | 7.55 |  | longer plasma stability | roughly 10 times |  |  |  |  |
| CC#N.CC#N.F[P-](F)(F)(F)(F)F.F[P-](F)(F)(F)(F)F.[Ru+2].c1ccc(-c2ccccn2)nc1.c1ccc(-c2ccccn2)nc1 [reference compound] |  |  |  |  |  |  |  | slight reduction | no difference in inhibition between light and dark experiments | up to 10 μM | up to 10 μM |
